Laboratory results reported in patent US12251422B2, “Compositions and methods for treating neurological and other disorders” (Rush University Medical Center, priority 2018, dated 2025).

Legend:
5×FAD Tg mice [1] = assay: Neuronal apoptosis and plasticity-related molecules in hippocampus of 5×FAD Tg mice; type: in vivo, mouse; conditions: 0.1 mg/kg body wt/2 d intranasal, 30 d
Description: (§1) FIG. 6 (A-N). Intranasal delivery of wtTIDM, but not mTIDM, peptide inhibits neuronal apoptosis in vivo in the hippocampus and improves memory and learning in Tg mice. […] After 30 d of treatment, mice were sacrificed and hippocampal sections were double-labeled for TUNEL & NeuN (A). […] Hippocampal extracts of all groups of mice (n=4) were immunoblotted for cleaved caspase 3 (D). Actin was run as loading control. E) Bands were scanned and values (cleaved caspase 3/Actin) are presented as relative to non-Tg control. […] Protein levels of PSD-95. NR2A and GluR1 were monitored in hippocampal extracts by Western blot (F). Bands were scanned and values (G, PSD-95/Actin; H, NR2A/Actin; I, GluR1/Actin) are presented as relative to non-Tg control. […] Mice were tested for Barnes maze (J, latency; K, number of errors made) and T maze (L, number of positive turns; M, number of negative turns). Short-term memory was also monitored by novel object recognition test, which is represented by discrimination index (N). Eight mice (n=8) were used in each group and results were analyzed by one-way ANOVA.
B6SJL-Tg (APPSwFlLon,PSEN1*M146L*L286V) 6799Vas/J transgenic (5×FAD or termed here as Tg) mice were purchased from Jackson Laboratories (Bar Harbor, ME). […] Briefly, TIDM peptides were dissolved in 5 μl normal saline, mice were hold in supine position and saline was delivered into one nostril using a pipetman.
It was performed using a commercially available kit (TdT FragEL™, Calbiochem) as described before (10, 22).

5×FAD Tg mice [2] = assay: Novel object recognition test in 5×FAD Tg mice; type: in vivo, mouse; conditions: vs untreated Tg or mTIDM-treated Tg mice
Description: as §1
Novel object recognition task was performed to monitor the short term memory as described by others (58) and us (57). Briefly, during training, mice were placed in a square novel box (20 inches long by 8 inches high) surrounded with infrared sensor. […]

[3] = target: T1, interaction between TLR4 and MyD88 (Mus musculus, UniProt Q9QUK6); assay: MyD88 immunoprecipitation / TLR4 western blot in BV-2 microglial cells; type: cell-based; conditions: BV-2 cells, peptide preincubated 1 h, LPS for 1 h, serum-free
T1 construct: endogenous in cells; host or cells: BV-2 microglial cells
T1 sequence (Q9QUK6 26-835): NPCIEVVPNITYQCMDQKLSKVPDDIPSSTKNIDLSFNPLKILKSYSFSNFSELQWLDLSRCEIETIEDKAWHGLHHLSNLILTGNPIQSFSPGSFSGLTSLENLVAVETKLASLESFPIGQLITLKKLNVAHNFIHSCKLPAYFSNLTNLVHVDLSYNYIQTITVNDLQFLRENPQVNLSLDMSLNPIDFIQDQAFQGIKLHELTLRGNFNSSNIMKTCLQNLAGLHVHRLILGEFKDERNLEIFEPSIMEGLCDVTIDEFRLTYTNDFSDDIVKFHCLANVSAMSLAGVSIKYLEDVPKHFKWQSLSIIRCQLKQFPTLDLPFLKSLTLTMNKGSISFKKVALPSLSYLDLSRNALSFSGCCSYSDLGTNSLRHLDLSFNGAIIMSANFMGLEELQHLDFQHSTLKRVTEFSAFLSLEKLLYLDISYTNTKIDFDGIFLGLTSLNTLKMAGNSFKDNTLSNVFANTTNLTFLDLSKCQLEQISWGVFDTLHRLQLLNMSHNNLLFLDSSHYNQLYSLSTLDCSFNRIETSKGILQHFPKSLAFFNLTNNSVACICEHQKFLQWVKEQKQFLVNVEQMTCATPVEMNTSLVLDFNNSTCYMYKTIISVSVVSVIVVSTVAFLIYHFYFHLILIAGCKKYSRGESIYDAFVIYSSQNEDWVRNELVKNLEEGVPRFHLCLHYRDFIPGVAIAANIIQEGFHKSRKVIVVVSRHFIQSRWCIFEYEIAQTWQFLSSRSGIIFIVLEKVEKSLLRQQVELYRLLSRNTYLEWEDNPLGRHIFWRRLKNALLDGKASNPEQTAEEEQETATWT
Procedure: FIG. 3(A-L). Selective disruption of TLR2 and MyD88 interaction by wtTIDM. In silico analyses of interactions of wtTIDM with TLR1, TLR4, TLR5, TLR6, TLR7, and TLR9. A rigid body interaction analyses were performed in pydock in silico analysis tool. […] G) BV-2 microglial cells preincubated with WtTIDM and mTIDM peptides for 1 h were stimulated with 1 μM fibrillar Aβ1-42 under serum-free condition. After 1 h, cellular extracts were immunoprecipitated with anti-MyD88 antibody followed by western blot of immunoprecipitates for TLR2. As control, cellular extracts were immunoprecipitated with normal IgG. Input was also immunoblotted with TLR2 and MyD88. H) Bands were scanned and values (TLR2/Input) presented as relative to control (n=2 replicates/condition in 3 independent experiments). Results were analyzed by two-sample t-tests. I) BV-2 microglial cells preincubated with wtTIDM and mTIDM peptides for 1 h were stimulated with LPS under serum-free condition. After 1 h, cellular extracts were immunoprecipitated with anti-MyD88 antibody followed by western blot of immunoprecipitates for TLR4. As control, cellular extracts were immunoprecipitated with normal IgG. Input was also immunoblotted with TLR4 and My D88. […] Results were analyzed by two-sample t-tests. […] Results were analyzed by two-sample t-tests.

Structure (SMILES): CC[C@H](C)[C@H](NC(=O)[C@H](CCCCN)NC(=O)[C@@H](NC(=O)[C@H](CCC(N)=O)NC(=O)[C@H](CCCNC(=N)N)NC(=O)[C@@H](N)CC(=O)O)[C@@H](C)CC)C(=O)N[C@@H](Cc1c[nH]c2ccccc12)C(=O)N[C@@H](Cc1ccccc1)C(=O)N[C@@H](CCC(N)=O)C(=O)N[C@@H](CC(N)=O)C(=O)N[C@@H](CCCNC(=N)N)C(=O)N[C@@H](CCCNC(=N)N)C(=O)N[C@@H](CCSC)C(=O)N[C@@H](CCCCN)C(=O)N[C@@H](Cc1c[nH]c2ccccc12)C(=O)N[C@@H](CCCCN)C(=O)N[C@@H](CCCCN)C(=O)N1CCC[C@H]1C(=O)NCC(=O)N[C@@H](C)C(=O)N[C@@H](Cc1c[nH]cn1)C(=O)N[C@@H](CCC(N)=O)C(=O)N[C@@H](CCCCN)C(=O)O [wtTIDM, drqikiwfqnrrmkwkkPGAHQK]
- PSD-95, NR2A and GluR1 proteins in the hippocampus (5×FAD Tg mice [1]): significant restoration
- elevated level of cleaved caspase 3 in the hippocampus (5×FAD Tg mice [1]): reduced
- neuronal apoptosis in the hippocampus (TUNEL & NeuN) (5×FAD Tg mice [1]): attenuated
- short-term memory, novel object recognition (discrimination index) (5×FAD Tg mice [2]): significant improvement
- effect on LPS-increased interaction between TLR4 and MyD88 [3]: had no effect
